Data reported in patent US20160031863A1, “HISTONE DEACETYLASE INHIBITORS AND COMPOSITIONS AND METHODS OF USE THEREOF” (CHDI FOUNDATION, INC., priority 2013, published 2016).

Legend:
[1] = test system: cellular histone deacetylase enzymatic activity in Jurkat E6-1 cells; test: Inhibition of cellular HDAC activity in Jurkat E6-1 cells, fluorogenic substrate Boc-Lys(Tfa)-AMC; assay type: cell-based; settings: Homo sapiens
Procedure: The potency of the compounds is quantified by measuring the cellular histone deacetylase enzymatic activity using the fluorogenic substrate, Boc-Lys(Tfa)-AMC. After penetration in Jurkat E6-1 cells, the substrate is deacetylated to Boc-Lys-AMC. After cell lysis and cleavage by trypsin, the fluorophore AMC is released from the deacetylated substrate only. The fluorescence of the sample is directly related to the histone deacetylase activity in the sample.
Jurkat E6.1 cells are cultured according to standard cell culture protocols in Jurkat E6.1 Growth Media (RPMI without phenol red, 10% FBS, 10 mM HEPES, and 1 mM Sodium Pyruvate). Jurkat E6.1 cells are counted using a Coulter Counter and resuspended in Jurkat E6.1 growth media at a concentration of 75,000 cells/35 μL. 35 μL or 75,000 cells is seeded into Greiner microtitre assay plates. The plates are then incubated at 37° C. and 5% CO2 while other assay components are being prepared.
(§1) Serial dilutions of the compounds being tested and control reference compound (1-(5-(3-((4-(1,3,4-oxadiazol-2-yl)phenoxy)methyl)-1,2,4-oxadiazol-5-yl)thiophen-2-yl)-2,2,2-trifluoroethanone) are made by first resuspending the lyophilized compound to a final concentration of 10 mM in 100% DMSO. Stocks of 70 μL aliquots of the 10 mM compound in DMSO are prepared and stored at −20° C. From one stock aliquot of each compound to be tested and the reference compound, a 16-point serial dilution is prepared according to Table 1 using a 125 μL 16-channel Matrix multi-channel pipette.
2 μL (200×) of each diluted solution and each control (full activity: 100% DMSO alone or full inhibition 1 mM) is stamped into V-bottom polypropylene 384-well compound plates using either the Bravo, Janus, or 12.5 μL 16-channel Matrix multi-channel pipette. Each well with the 200× compound solution is diluted 1:20 by the addition of 38 μL Jurkat assay buffer+DMSO (9.5% DMSO, RPMI without phenol red, 0.09% FBS, 9 mM Hepes, and 0.9 mM Sodium Pyruvate equilibrated to room temperature)
5× (500 μM) substrate is prepared just prior to the addition to the assay. The 5× substrate is prepared by diluting a 100 mM Boc-Lys(Tfa)-AMC in DMSO solution 1:200 by adding it drop-wise to Jurkat assay medium (RPMI without phenol red, 0.1% FBS, 10 mM Hepes, and 1 mM Sodium Pyruvate equilibrated to 37° C.) while vortexing at slow speed to prevent precipitation.
10 mL of 3× lysis buffer is prepared with 8.8 ml of 3× stock lysis buffer (50 mM Tris-HCl, pH 8.0, 137 mM NaCl, 2.7 mM KCl, 1 mM MgCl2, 1% Nonidet P40 Substitute equilibrated to room temperature) and 1.2 mL of 3 mg/mL Trypsin equilibrated to room temperature.
5 μL of each solution of 1:20 diluted compound from above is transferred to the Greiner microtitre assay plates with 75,000 cells/well using the Bravo. Cells are then incubated for 2 hours at 37° C. and 5% CO2. The assay is then started by adding 10 μL of 5× (500 μM) substrate to the assay plate using either the Bravo or 16-channel Matrix multi-channel pipette. The cells are then incubated for 3 hours at 37° C. and 5% CO2. Next, 25 μL of 3× lysis buffer is added to each well using either the 125 μL 16 channel pipette or the Bravo. The assay plate is then incubated overnight (15-16 hours) at 37° C. and 5% CO2. The following day, the plates are shaken on an orbital shaker for 1 minute at 900 rpm. Finally the top read fluorescence (Excitation: 355 nm, Emission: 460 nm) is measured using PerkinElmer EnVision.

[2] = target: T1, Histone Deacetylase 4 (HDAC4) catalytic domain (Homo sapiens, UniProt P56524); test: Inhibition of HDAC4 catalytic domain enzymatic activity, fluorogenic substrate Boc-Lys(Tfa)-AMC; assay type: biochemical
T1 construct: 6x histidine tag (C); purchased BioFocus
T1 sequence (P56524 648-1032): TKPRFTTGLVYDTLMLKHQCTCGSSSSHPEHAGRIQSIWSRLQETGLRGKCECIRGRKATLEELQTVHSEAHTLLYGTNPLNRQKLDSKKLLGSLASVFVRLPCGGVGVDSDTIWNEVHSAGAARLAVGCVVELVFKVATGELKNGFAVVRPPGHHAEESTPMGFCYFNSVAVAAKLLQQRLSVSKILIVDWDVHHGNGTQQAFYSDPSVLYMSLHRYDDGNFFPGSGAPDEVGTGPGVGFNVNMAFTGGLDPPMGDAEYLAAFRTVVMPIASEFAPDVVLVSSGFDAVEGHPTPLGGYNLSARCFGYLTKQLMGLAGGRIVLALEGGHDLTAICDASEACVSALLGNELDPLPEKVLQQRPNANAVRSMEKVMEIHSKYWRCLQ
Text: The potency of compounds is quantified by measuring the Histone Deacetylase 4 (HDAC4) catalytic domain enzymatic activity using the fluorogenic substrate, Boc-Lys(Tfa)-AMC. The substrate is deacetylated to Boc-Lys-AMC by HDAC4. Cleavage by trypsin results in the release of the fluorophore AMC from the deacetylated substrate. The fluorescence of the sample is directly related to the histone deacetylase activity in the sample.
as §1, with “dimethyl sulfoxide (DMSO).” for “DMSO.”, “60” for “70”, “pipette (Matrix Technologies Ltd).” for “pipette.”
2 μL (200×) of each diluted solution and each control (full activity: 100% DMSO alone or full inhibition 1 mM) is stamped into V-bottomed polypropylene 384-well compound plates using either the Bravo (384-well head from Agilent) or 12.5 μL 16-channel Matrix multi-channel pipette (Matrix Technologies Ltd).
A working solution of enzyme is prepared from a 500 μg/mL stock aliquot of HDAC4 catalytic domain (thawed on ice) diluted to 0.2 μg/mL with assay buffer (50 mM Tris-HCl, 137 mM NaCl, 2.7 mM KCl, and 1 mM MgCl2 at pH 8 and equilibrated to room temperature) just prior to the addition of the enzyme to the assay.
5× (50 μM) substrate is prepared just prior to the addition to the assay. A 1 mM substrate stock is made by diluting a 100 mM Boc-Lys(Tfa)-AMC in DMSO solution 1:100 by adding it drop-wise to assay buffer (equilibrated to room temperature) while vortexing at slow speed to prevent precipitation. The 5× substrate is prepared by diluting the 1 mM substrate solution 1:20 by adding it drop-wise to assay buffer (equilibrated to room temperature) while vortexing at slow speed to prevent precipitation.
3× (30 μM) Developer/Stop Solution is prepared just prior to addition to the plate by diluting a stock solution of 10 mM reference compound 1:333 in 25 mg/mL trypsin (PAA Laboratories Ltd.) equilibrated to room temperature.
5 μL of each solution of 1:20 diluted compound from above is transferred to a clear bottomed, black, 384-well assay plate using the Bravo or the Janus (384-well MDT head from Perkin Elmer). Using a 16-channel Matrix multi-channel pipette, 35 μL of the working solution of HDAC4 catalytic domain enzyme (0.2 μg/mL in assay buffer) is transferred to the assay plate. The assay is then started by adding 10 μL of 5× (50 μM) substrate to the assay plates using either the Bravo, Janus or 16-channel Matrix multi-channel pipette. The assay plate is then shaken for two minutes on an orbital shaker at 900 rpm (rotations per minute). Next the plate is incubated for 15 minutes at 37° C. The reaction is stopped by adding 25 μL of 3× (30 μM) developer/stop solution to the assay plates using either the Bravo, Janus or a 16-channel Matrix multi-channel pipette. Assay plates are then shaken for 5 minutes on an orbital shaker at 1200 rpm. Next, the assay plates are incubated at 37° C. for 1 hour in a tissue culture incubator. Finally, the fluorescence is measured (Excitation: 355 nm, Emission: 460 nm) using PerkinElmer EnVision in top read mode.

| Compound | IC50 [1] | IC50 [2] |
| --- | --- | --- |
| O=C(NO)c1cc(OCc2ccccc2)nn1-c1ccccc1 [Example 13, N-Hydroxy-3-benzyloxy-1-phenyl-1H-pyrazole-5-carboxamide] | > 50 µM | 27.5 µM |
| O=C(NO)c1cc(-c2ccccc2Cl)nn1-c1ccccc1 [Example 5, N-Hydroxy-3-(2-chlorophenyl)-1-phenyl-1H-pyrazole-5-carboxamide] | 2.82 µM | 0.38 µM |
| Cc1ccccc1-c1cc(C(=O)NO)n(-c2ccccc2C)n1 [Example 12, N-Hydroxy-1,3-bis(2-methylphenyl)-1H-pyrazole-5-carboxamide] | 16 µM | 2.4 µM |
| O=C(NO)c1cc(-c2cncc(Cl)c2)nn1-c1ccccc1 [Example 8] | 41.6 µM | 4.9 µM |
| O=C(NO)c1cc(C2CCCC2)nn1-c1ccccc1 [Example 7, N-Hydroxy-3-cyclopentyl-1-phenyl-1H-pyrazole-5-carboxamide] | 12.1 µM | 1.8 µM |
| O=C(NO)c1cc(-c2cccc3ccsc23)nn1-c1ccccc1 [Example 2, N-Hydroxy-3-(benzothiophen-7-yl)-1-phenyl-1H-pyrazole-5-carboxamide] | 2.72 µM | 0.12 µM |
| Cc1ccccc1-c1cc(C(=O)NO)n(-c2cccc(F)c2C)n1 [Example 10, N-hydroxy-1-(3-fluoro-2-methyl-phenyl)-3-(2-methyl-phenyl)-1H-pyrazole-5-carboxamide] | 5.68 µM | 0.75 µM |
| O=C(NO)c1cc(N2CCCC2)nn1-c1ccccc1 [Example 14, N-Hydroxy-1-phenyl-3-pyrrolidin-1-yl-1H-pyrazole-5-carboxamide] | 46.2 µM | 9.9 µM |
| O=C(NO)c1cc(-c2ccccc2)nn1-c1ccccc1 [Example 1, N-Hydroxy-1,3-diphenylpyrazole-5-carboxamide] | 24.2 µM | 10.3 µM |
| O=C(NO)c1cc(Cc2ccccc2)nn1-c1ccccc1 [Example 4, N-Hydroxy-3-benzyl-1-phenyl-1H-pyrazole-5-carboxamide] | 10.2 µM | 0.96 µM |
| O=C(NO)c1cc(-c2ccccc2Cl)cn1-c1ccccc1 [Example 16, N-Hydroxy-4-(2-chlorophenyl)-1-phenyl-pyrrole-2-carboxamide] | 6.17 µM | 0.71 µM |
| O=C(NO)c1cc(C2=CCCC2)nn1-c1ccccc1 [Example 6, N-Hydroxy-3-(cyclopenten-1-yl)-1-phenyl-1H-pyrazole-5-carboxamide] | 20.3 µM | 2.7 µM |
| Cc1ncccc1-c1cc(C(=O)NO)n(-c2ccccc2)n1 [Example 9, N-Hydroxy-3-(2-methyl-3-pyridyl)-1-phenyl-1H-pyrazole-5-carboxamide] | 6.9 µM | 1.4 µM |
| Cc1ccccc1-c1cc(C(=O)NO)n(-c2ccccc2)c1 [Example 15, N-Hydroxy-4-(2-methylphenyl)-1-phenyl-pyrrole-2-carboxamide] | 13.8 µM | 1.4 µM |
| CN1CC=C(c2cc(C(=O)NO)n(-c3ccccc3)n2)CC1 [Example 11, N-Hydroxy-3-(1-methyl-3,6-dihydro-2H-pyridin-4-yl)-1-phenyl-1H-pyrazole-5-carboxamide] | 4.07 µM | 0.24 µM |
| Cc1ccccc1-c1cc(C(=O)NO)n(-c2ccccc2)n1 [Example 3, N-Hydroxy-3-(2-methylphenyl)-1-phenyl-1H-pyrazole-5-carboxamide] | 7.3 µM | 0.94 µM |
